ChEMBL document CHEMBL1144544, “Solid-phase synthesis of a combinatorial library of dihydroceramide analogues and its activity in human alveolar epithelial cells” (Bioorg Med Chem, 2007)
pIC50: −log10 of the molar value. Calls of active or inactive are those of the source. The rule behind the calls is not given here.

Assays:
A549 [1] = assay: Cell cycle arrest in human A549 cells by accumulation at S phase after 72 hrs relative to control by flow cytometry; type: functional; parameters: concentration or dose not given beside the values
A549 [2] = assay: Cell cycle arrest in human A549 cells by accumulation at G2 phase after 72 hrs relative to control by flow cytometry; type: functional; parameters: concentration or dose not given beside the values
A549 [3] = assay: Cell cycle arrest in human A549 cells by accumulation at G0/G1 phase after 72 hrs relative to control by flow cytometry; type: functional; parameters: concentration or dose not given beside the values
A549 [4] = assay: Cytotoxicity against human A549 cells after 72 hrs by MTT test; type: cell-based; details: A549, 72 h
A549 [5] = assay: Cytotoxicity against human A549 cells at 1 mM after 72 hrs by MTT test; type: cell-based; details: a549, 72 h, 1000 µM
A549 [6] = assay: Cell death of human A549 cells assessed as increase in number of apoptotic cells by annexin V and propidium iodide staining by flow cytometry; type: functional, cell-based
A549 [7] = assay: Cytotoxicity against human A549 cells upto 1 mM in presence of <=5% FBS after 72 hrs by MTT test; type: cell-based; details: a549, 72 h
A549 [8] = assay: Cytotoxicity against human A549 cells in presence of 10% FBS after 72 hrs by MTT test; type: cell-based; details: a549, 72 h
A549 [9] = assay: Cytotoxicity against human A549 cells upto 1 mM in presence of 10% FBS after 72 hrs by MTT test; type: cell-based; details: a549, 72 h

Compound | Activity (A549 [1]) [%] | Activity (A549 [2]) [%] | Activity (A549 [3]) [%] | pIC50 (A549 [4]) | other results
CCCCCCCCC(O)[C@H](CO)NC(=O)Cc1ccc(OC)c(OC)c1 (some centres not stated) | 10.5 | 5.5 | 84 |  | 
CCCCCCCc1ccc(C(=O)N[C@@H](CO)C(O)CCCCCC)cc1 (some centres not stated) | 8.1 | 5.4 | 86.5 | 4.70 | 
CC(O)[C@H](CO)NC(=O)c1ccc2ccccc2c1 (some centres not stated) |  |  |  |  | Activity (A549 [5]): Non-toxic
CCCCCCCCCCCCCCC[C@@H](O)[C@H](CO)NC(=O)c1ccc(CCCCCCC)cc1 |  |  |  |  | Activity (A549 [6]): inactive
CCCCCCC(O)[C@H](CO)NC(=O)CC(C)C (some centres not stated) |  |  |  | 3.52 | 
CC(O)[C@H](CO)NC(=O)c1ccccc1 (some centres not stated) |  |  |  |  | Activity (A549 [5]): Non-toxic
CCCCCCCCCCCCC(O)[C@H](CO)NC(=O)CC(C)C (some centres not stated) | 5.2 | 4.4 | 89.8 |  | 
CCCCCCCCCCCCC/C=C/[C@@H](O)[C@H](CO)NC(=O)CCCCC |  |  |  | 4.46 | Activity (A549 [7]): Non-toxic; Activity (A549 [8]): Dose-dependent effect
CCCCCCCc1ccc(C(=O)N[C@@H](CO)C(O)c2ccccc2)cc1 (some centres not stated) |  |  |  | 4.70 | 
CCCCCCCCC(O)[C@H](CO)NC(=O)c1ccc2ccccc2c1 (some centres not stated) | 5.4 | 3.4 | 91.2 |  | 
CCCCCCCCCCCCCCC[C@H](O)[C@H](CO)NC(=O)c1ccc(CCCCCCC)cc1 | 11.5 | 5.4 | 83.1 | 3.97 | Activity (A549 [6]): Active
CC(C)CC(=O)N[C@@H](CO)C(C)O (some centres not stated) |  |  |  |  | Activity (A549 [5]): Non-toxic
CC(O)[C@H](CO)NC(=O)CCC1CCCC1 (some centres not stated) |  |  |  |  | Activity (A549 [5]): Non-toxic
CCCCCCCCC(O)[C@H](CO)NC(=O)CC(C)C (some centres not stated) | 10.5 | 5 | 84.5 |  | 
COc1ccc(CC(=O)N[C@@H](CO)C(C)O)cc1OC (some centres not stated) |  |  |  | 3.39 | 
CCCCCCCCC(O)[C@H](CO)NC(=O)c1ccccc1 (some centres not stated) | 8.4 | 2 | 89.6 |  | 
O=C(CCC1CCCC1)N[C@@H](CO)C(O)c1ccccc1 (some centres not stated) |  |  |  | 3.22 | 
CCCCCCCCCCCCCCC[C@@H](O)[C@H](CO)NC(=O)CCCCC |  |  |  |  | Activity (A549 [9]): Not Active
CCCCCCCCCCCCC(O)[C@H](CO)NC(=O)Cc1ccc(OC)c(OC)c1 (some centres not stated) | 5.4 | 7 | 86.5 | 4.70 | 
O=C(N[C@@H](CO)C(O)c1ccccc1)c1ccccc1 (some centres not stated) |  |  |  | 3.16 | 
CCCCCCCCC(O)[C@H](CO)NC(=O)c1ccc(CCCCCCC)cc1 (some centres not stated) | 3.4 | 4 | 92.6 | 4.70 | Activity (A549 [6]): Active
CCCCCCCCCCCCC(O)[C@H](CO)NC(=O)c1ccccc1 (some centres not stated) | 12.8 | 4.2 | 83 |  | 
CCCCCCCCCCCCC(O)[C@H](CO)NC(=O)c1ccc(CCCCCCC)cc1 (some centres not stated) | 7.4 | 4.4 | 88.2 |  | 
O=C(N[C@@H](CO)C(O)c1ccccc1)c1ccc2ccccc2c1 (some centres not stated) |  |  |  | 3.24 | 
CCCCCCCCCCCCC(O)[C@H](CO)NC(=O)c1ccc2ccccc2c1 (some centres not stated) | 7.4 | 2.2 | 90.4 |  | 
CCCCCCCCC(O)[C@H](CO)NC(=O)CCC1CCCC1 (some centres not stated) | 3.4 | 2.2 | 94.4 |  | 
CC(C)CC(=O)N[C@@H](CO)C(O)c1ccccc1 (some centres not stated) |  |  |  |  | Activity (A549 [5]): Non-toxic
CCCCCCC(O)[C@H](CO)NC(=O)c1ccccc1 (some centres not stated) |  |  |  | 3.54 | 
